Results: US8455510B2
Where “and” joins values, the source holds several entries; their conditions need not be identical. Identical values can stand only once. Like-named read-outs stand apart in the source and are kept apart here.

Tests used:
[1] = Distribution profile of prototype drug and rapamycin in plasma, liver and tumor of nude mice (LC-MS); type: in vivo; design: AUC0-t (ng · h/g or ng · h/ml): concentration or dose not given beside the values; conditions: for concentration at 0.5 h / concentration at 2 h / concentration at 5 h: nude, mouse; for AUC0-t (ng · h/g or ng · h/ml): substance determined: Sirolimus
[2] = Immunosuppressive activity assay: cytotoxicity; type: cell-based; conditions: Table 10
[3] = test system: normal mouse spleen B lymphocytes induced by LPS; assay: 3H-TdR incorporation, LPS-induced B lymphocyte proliferation; type: cell-based, BALB/c mice; conditions: LPS, 48 hours, 3H-TdR, read-out: IC50, proliferation of B lymphocytes induced by LPS
Procedure: ^3H-thymidine incorporation was adopted to measure the effect of the in vitro administered compound on the proliferation function of the spleen lymphocytes of normal mice induced by a mixed culture of mitogen/allogeneic mouse spleen lymphocytes, and evaluate the in vitro immunosuppressive activity of the compound.
Measurement of the effects of compounds on the proliferation function of mouse spleen lymphocytes induced by mitogen by ^3H-TdR incorporation: 100 μl cell suspension of mouse spleen lymphocytes was inoculated on a 96-well plate (4×10^5 per well), followed by addition of 50 μl of ConA (final concentration: 5 μg/ml), 50 μl of LPS (final concentration: […]) or 50 μl of compound at different concentrations. The total volume of each well was 200 μl. The test was carried out in triplicate wells for each concentration, and included control wells without ConA/LPS or the compound. After the 96-well plate was placed in an incubator at 37° C. with 5% CO2 for 48 hours, 25 μl of ^3H-thymidine (10 μCi/ml) was added in each well 8 hours before the end of incubation. […] The amount of ^3H-TdR incorporated in cell DNA was determined by a Beta cell counter (MicroBeta Trilux, PerkinElmer), and the cell proliferation was represented as a cpm value.

[4] = test system: DNFB-induced delayed type hypersensitivity reaction; assay: DNFB-induced delayed type hypersensitivity reaction in mice; type: in vivo, BALB/c mice; conditions: 1.5 mg/kg/d, intraperitoneal injection; model control 0.175 mm
Procedure: The delayed type hypersensitivity (DTH) reaction in mice was induced by DNFB to evaluate the inhibition effect of the compound on DTH in vivo. […] Preparation method: the compound was dissolved in anhydrous alcohol to prepare a stock solution (50 mg/ml), which was diluted to the desired concentration when use by using a solution of 5% PEG400, 5% Tween-80 in sterile water as a solvent. […] DNFB combined with dermal protein to form a complete antigen after sensitizing on feet of mice. One week later, mice were attacked by DNFB on ears to induce a local delayed allergic reaction, i.e., the delayed type hypersensitivity reaction to cause ear swelling, while the delayed type hypersensitivity reaction would not be observed on the ear which had not been attacked. Therefore, the ear swelling can reflect the level of the delayed type hypersensitivity reaction in mice induced by DNFB. (1) 20 μl of 0.5% DNFB solution in a mixture of acetone and olive oil (4:1) as a solvent was applied on both hind legs of mice for sensitization. […] (4) Thickness of the left and right ears of the mice was measured by a micrometer screw gauge, and the swelling was calculated by subtracting the thickness of the left ear from thickness of the right ear.

[5] = test system: SRBC-induced specific antibody-producing cells in spleen lymphocytes; assay: Quantitative hemolysis of sheep red blood cells (QHS) assay; type: in vivo, BALB/c mice; conditions: 1.5 mg/kg, intraperitoneal injection
Excerpt: It is a classic experimental method to determine the generation of antigen-specific antibody with SRBC hemolytic reaction in SRBC-induced mouse humoral immunity model. The quantitative hemolysis of sheep red blood cells (QHS) assay is an experimental method for evaluating the amount of the antibody secreted, which is based on the principle that the sheep red blood cells are hemolyzed by the anti-SRBC specific antibody secreted by B lymphocytes (plasma cells) to release haemoglobin. After mice are sensitized by sheep red blood cells (SRBC), there will appear cells which can secrete specific antibody in mouse spleen lymphocytes. The Antibody secreted by such cells could hemolyze SRBC with the synergistic action of the complement. Therefore, the amount of the cells secreting the specific antibody can be evaluated by determining the hemolytic degree by spectrophotometry. […] BALB/c mice were randomly divided into 5 groups with 6 mice in each group. […] When immunized, the mice in each group were administered by intraperitoneal injection once daily until 5 days after the immunization. The mice in model control group were administered daily with the solvent. 2. […] Each mice was introperitoneally injected with 0.2 ml of the diluted SRBC for sensitizing. 3. QHS assay was carried out 5 days after the sensitization: The mouse spleen was collected to produce the spleen lymphocytes. […] The mixture was kept at 37° C. for 1 hour, and then centrifugated at 3000 rpm for 10 min. […] The quantitative hemolysis of sheep red blood cells (QHS) assay uses the amount of haemoglobin (OD value) released from the hemolysis of red blood cells by the antibody secreted by B cells to indicate the level of humoral immunity in body. Inhibition of specific antibody-secreting cells %=(OD of model control group-OD of administration group)/(OD of model control group-OD of normal control group)

[6] = test system: human rhabdomyosarcoma RH-30 xenograft; assay: RH-30 xenograft on nude mice; conditions: 1-5/2 w; for TV (mm^3) d0: baseline;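 on all read-outs here: male BALB/cA nude mice with subcutaneous RH-30 tumors, oral dosing versus solvent-fed controls, caliper tumor volume, RTV relative to grouping day, T/C as treated RTV over control RTV ×100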
Excerpt: Animals: BALB/cA nude mice, male, 40-45 days old, body weight: 21±2 g, provided by Shanghai Institute of Materia Medica, Chinese Academy of Sciences. License No.: SCXK (Shanghai) 2004-0002. Animal number in each group: 6 in negative control group, and 6 in administration group.
The amount of inoculated cells was 5×10^6. After the xenograft was formed by inoculation, it was used after passed for 3 generations in nude mice.

[7] = 0.5 h after administration, individual animals
[8] = 2.0 h after administration, individual animals
[9] = 5.0 h after administration, individual animals
[10] = 12 h after administration, individual animals
[11] = 48 h after administration, individual animals

CO[C@H]1C[C@@H]2CC[C@@H](C)[C@@](O)(O2)C(=O)C(=O)N2CCCC[C@H]2C(=O)O[C@H]([C@H](C)C[C@@H]2CC[C@@H](OC(=O)OCC(O)CO)[C@H](OC)C2)CC(=O)[C@H](C)/C=C(\C)[C@@H](O)[C@@H](OC)C(=O)[C@H](C)C[C@H](C)/C=C/C=C/C=C/1C (stereo partly drawn) [Y31]
Y31 (prototype) concentration, Blood Plasma [1, 7]: 2.47 ng/mL and 3.03 ng/mL
Y31 (prototype) concentration, Liver [1, 7]: 14.3 ng/g and 6.24 ng/g and 8.61 ng/g
Y31 (prototype) concentration, Tumor [1, 7]: BLQ (BLQ: below the limit of Quantitation, 0.2 ng/ml (blood plasma); 1.0 ng/g(tissue))
Y31 (prototype) concentration, Blood Plasma [1, 8]: 0.70 ng/mL and 0.58 ng/mL and 0.20 ng/mL
Y31 (prototype) concentration, Liver [1, 8]: 13.4 ng/g and 17.4 ng/g
Y31 (prototype) concentration, Tumor [1, 8]: BLQ (BLQ: below the limit of Quantitation, 0.2 ng/ml (blood plasma); 1.0 ng/g(tissue))
Y31 (prototype) concentration, Blood Plasma [1, 9]: BLQ (BLQ: below the limit of Quantitation, 0.2 ng/ml (blood plasma))
Y31 (prototype) concentration, Liver [1, 9]: 0.88 ng/g and 0.91 ng/g and 2.16 ng/g
Y31 (prototype) concentration, Tumor [1, 9]: BLQ (BLQ: below the limit of Quantitation, 0.2 ng/ml (blood plasma); 1.0 ng/g(tissue))
Y31 (prototype) concentration, Blood Plasma [1, 10]: BLQ (BLQ: below the limit of Quantitation, 0.2 ng/ml (blood plasma))
Y31 (prototype) concentration, Liver [1, 10]: BLQ (BLQ: below the limit of Quantitation, 0.2 ng/ml (blood plasma); 1.0 ng/g(tissue))
Y31 (prototype) concentration, Tumor [1, 10]: BLQ (BLQ: below the limit of Quantitation, 0.2 ng/ml (blood plasma); 1.0 ng/g(tissue))
Y31 (prototype) concentration, Blood Plasma [1, 11]: BLQ (BLQ: below the limit of Quantitation, 0.2 ng/ml (blood plasma))
Y31 (prototype) concentration, Liver [1, 11]: BLQ (BLQ: below the limit of Quantitation, 0.2 ng/ml (blood plasma); 1.0 ng/g(tissue))
Y31 (prototype) concentration, Tumor [1, 11]: BLQ (BLQ: below the limit of Quantitation, 0.2 ng/ml (blood plasma); 1.0 ng/g(tissue))
maximum concentration of the prototype drug in blood plasma and tissues ([1]; after administration to nude mice): less than 20 ng/ml or ng/g
prototype drug 5 hours after the administration ([1]; blood plasma and tissues): not detectable
concentration at 0.5 h ([1]; liver, 0.5 h after administration, mean of 3 animals, read-out: Y31 (prototype) concentration, Liver, Mean Value): 9.72 ng/g
concentration at 2 h ([1]; liver, 2.0 h after administration, individual animals, read-out: Y31 (prototype) concentration, Liver): 12.4 ng/g
concentration at 2 h ([1]; liver, 2.0 h after administration, mean of 3 animals, read-out: Y31 (prototype) concentration, Liver, Mean Value): 14.4 ng/g
concentration at 5 h ([1]; liver, 5.0 h after administration, mean of 3 animals, read-out: Y31 (prototype) concentration, Liver, Mean Value): 1.32 ng/g
concentration at 0.5 h ([1]; plasma, 0.5 h after administration, individual animals, read-out: Y31 (prototype) concentration, Blood Plasma): 1.7 ng/mL
concentration at 0.5 h ([1]; plasma, 0.5 h after administration, mean of 3 animals, read-out: Y31 (prototype) concentration, Blood Plasma, Mean Value): 2.4 ng/mL
concentration at 2 h ([1]; plasma, 2.0 h after administration, mean of 3 animals, read-out: Y31 (prototype) concentration, Blood Plasma, Mean Value): 0.49 ng/mL
concentration at 5 h ([1]; plasma, 5.0 h after administration, individual animals, read-out: Y31 (prototype) concentration, Blood Plasma): 0.18 ng/mL
AUC0-t (ng · h/g or ng · h/ml) ([1]; Liver): 4031 ng·h/g
AUC0-t (ng · h/g or ng · h/ml) ([1]; Tumor): 2948 ng·h/g
Safety Index CC50/IC50 [2]: 1860.0
CC50 ([2]; read-out: Cytotoxicity CC50): 93 µM
IC50 [3]: 0.0978 µM
average ear swelling degree [4]: 0.129 mm
Inhibition of Specific Antibody-secreting cells % [5]: 93.03%
Quantitative hemolysis OD Value ([5]; model control 0.3887, normal control 0.3036): 0.3095
Body Weight (g) end ([6]; Table 4, 2.5 mg/kg po): 21.2 g
Body Weight (g) start ([6]; Table 4, 2.5 mg/kg po): 19.2 g
RTV ([6]; Table 4, 2.5 mg/kg po): 1.6 ± 0.6
T/C (%) ([6]; Table 4, 2.5 mg/kg po): 37.1%
TV (mm^3) d14 ([6]; Table 4, 2.5 mg/kg po): 259 ± 130 mm^3
TV (mm^3) d0 ([6]; Table 4, 2.5 mg/kg po): 159 ± 36 mm^3
Body Weight (g) end ([6]; Table 4, 5 mg/kg po): 21.7 g
Body Weight (g) start ([6]; Table 4, 5 mg/kg po): 20.8 g
RTV ([6]; Table 4, 5 mg/kg po): 2.0 ± 0.5
T/C (%) ([6]; Table 4, 5 mg/kg po): 45.5%
TV (mm^3) d14 ([6]; Table 4, 5 mg/kg po): 316 ± 153 mm^3
TV (mm^3) d0 ([6]; Table 4, 5 mg/kg po): 160 ± 53 mm^3
